Test results: PubChem BioAssay AID1259407 (Chemical Carcinogenesis Research Information System (CCRIS), 2018)
Activity calls are given as the source filed them. The rule behind the calls is not given here.

Test system: CCRIS mutagenicity, Ames/micronucleus/aberration tests
Experiment: CCRIS mutagenicity studies
[1] = Test System: AMES SALMONELLA TYPHIMURIUM, Strain/Indicator: TA98, Metabolic Activation: NONE, Method: STANDARD PLATE
[2] = Test System: AMES SALMONELLA TYPHIMURIUM, Strain/Indicator: TA100, Metabolic Activation: NONE, Method: STANDARD PLATE
[3] = Test System: AMES SALMONELLA TYPHIMURIUM, Strain/Indicator: TA100, Metabolic Activation: NONE, Method: PREINCUBATION

For `c1ccc2c(c1)CC[C@H]1CCC[C@@H]3O[C@]213`, the mutagenic call [1] was “inactive; negative” and the mutagenic call [2] was “inactive; negative”.

For `COc1c(C(C)(C)C)cc([N+](=O)[O-])c(C)c1[N+](=O)[O-]`, the mutagenic call (Test System: AMES SALMONELLA TYPHIMURIUM, Strain/Indicator: TA98, Metabolic Activation: HAMSTER, LIVER, S-9, AROCLOR 1254 (10%), Method: PREINCUBATION) was “inactive; negative”, the mutagenic call (Test System: AMES SALMONELLA TYPHIMURIUM, Strain/Indicator: TA98, Metabolic Activation: NONE, Method: PREINCUBATION) was “inactive; negative” and the mutagenic call [1] was “inactive; negative”. The mutagenic call (Test System: AMES SALMONELLA TYPHIMURIUM, Strain/Indicator: TA98, Metabolic Activation: RAT, LIVER, AROCLOR 1254, Method: STANDARD PLATE) was “inactive; negative”, the mutagenic call (Test System: AMES SALMONELLA TYPHIMURIUM, Strain/Indicator: TA98, Metabolic Activation: RAT, LIVER, S-9, AROCLOR 1254 (10%), Method: PREINCUBATION) was “inactive; negative” and the mutagenic call (Test System: AMES SALMONELLA TYPHIMURIUM, Strain/Indicator: TA98, Metabolic Activation: RAT, LIVER, S-9, AROCLOR 1254, Method: PREINCUBATION) was “inactive; negative”. The mutagenic call (Test System: AMES SALMONELLA TYPHIMURIUM, Strain/Indicator: TA98, Metabolic Activation: RAT, LIVER, S-9, AROCLOR 1254, Method: STANDARD PLATE) was “inactive; negative”, the mutagenic call (Test System: AMES SALMONELLA TYPHIMURIUM, Strain/Indicator: TA100 (NR), Metabolic Activation: NONE, Method: STANDARD PLATE) was “inactive; negative” and the mutagenic call (Test System: AMES SALMONELLA TYPHIMURIUM, Strain/Indicator: TA100(NR), Metabolic Activation: RAT LIVER S-9, AROCLOR 1254, Method: STANDARD PLATE) was “inactive; negative”. The mutagenic call (Test System: AMES SALMONELLA TYPHIMURIUM, Strain/Indicator: TA100, Metabolic Activation: HAMSTER, LIVER, S-9, AROCLOR 1254 (10%), Method: PREINCUBATION) was “inactive; negative”, the mutagenic call [3] was “inactive; negative” and the mutagenic call [2] was “inactive; negative”. For the same compound, the mutagenic call (Test System: AMES SALMONELLA TYPHIMURIUM, Strain/Indicator: TA100, Metabolic Activation: RAT LIVER S-9, AROCLOR 1254, Method: STANDARD PLATE) was “active; positive”, the mutagenic call (Test System: AMES SALMONELLA TYPHIMURIUM, Strain/Indicator: TA100, Metabolic Activation: RAT, LIVER, S-9, AROCLOR 1254 (10%), Method: PREINCUBATION) was “inactive; negative” and the mutagenic call (Test System: AMES SALMONELLA TYPHIMURIUM, Strain/Indicator: TA100, Metabolic Activation: RAT, LIVER, S-9, AROCLOR 1254, Method: PREINCUBATION) was “active; positive”. For the same compound, the mutagenic call (Test System: AMES SALMONELLA TYPHIMURIUM, Strain/Indicator: TA100, Metabolic Activation: RAT, LIVER, S-9, AROCLOR 1254, Method: STANDARD PLATE) was “active; positive”, the mutagenic call (Test System: AMES SALMONELLA TYPHIMURIUM, Strain/Indicator: TA1535, Metabolic Activation: HAMSTER, LIVER, S-9, AROCLOR 1254 (10%), Method: PREINCUBATION) was “inactive; negative” and the mutagenic call (Test System: AMES SALMONELLA TYPHIMURIUM, Strain/Indicator: TA1535, Metabolic Activation: NONE, Method: PREINCUBATION) was “inactive; negative”. The mutagenic call (Test System: AMES SALMONELLA TYPHIMURIUM, Strain/Indicator: TA1535, Metabolic Activation: RAT, LIVER, S-9, AROCLOR 1254 (10%), Method: PREINCUBATION) was “inactive; negative”, the mutagenic call (Test System: AMES SALMONELLA TYPHIMURIUM, Strain/Indicator: TA1537, Metabolic Activation: HAMSTER, LIVER, S-9, AROCLOR 1254 (10%), Method: PREINCUBATION) was “inactive; negative” and the mutagenic call (Test System: AMES SALMONELLA TYPHIMURIUM, Strain/Indicator: TA1537, Metabolic Activation: NONE, Method: PREINCUBATION) was “inactive; negative”. The mutagenic call (Test System: AMES SALMONELLA TYPHIMURIUM, Strain/Indicator: TA1537, Metabolic Activation: RAT, LIVER, S-9, AROCLOR 1254 (10%), Method: PREINCUBATION) was “inactive; negative”.

`[N-]=[N+]=N[C@H](c1ccccc1)[C@@H](O)CO` was tested, and the mutagenic call (Test System: AMES SALMONELLA TYPHIMURIUM, Strain/Indicator: TA100, Metabolic Activation: RAT, LIVER, S-9, PCB, Method: PREINCUBATION) was “active; positive”.

In the case of `Oc1cccc2[nH]c3ccccc3c12`, the mutagenic call (Test System: CHINESE HAMSTER OVARY, Strain/Indicator: CHO-K1-BH4 (HGPRT)/6-THIOGUANINE, Metabolic Activation: RAT, LIVER, S-9, AROCLOR (4%)) was “active; positive”.

For `Oc1c(Cl)c(Cl)c(O)c(Cl)c1Cl`, the mutagenic call (Test System: CHINESE HAMSTER V79 CELLS, Strain/Indicator: V79 CELLS (HPRT)/6-THIOGUANINE, Metabolic Activation: NONE, Method: PREINCUBATION) was “active; positive”, the mutagenic call (Test System: CHINESE HAMSTER V-79, Strain/Indicator: V-79/6-THIOGUANINE, Metabolic Activation: NONE, Method: SUSPENSION/PLATE) was “active; positive” and the mutagenic call (Test System: CHINESE HAMSTER V-79, Strain/Indicator: V-79/OUABAIN, Metabolic Activation: NONE, Method: SUSPENSION/PLATE) was “inactive; negative”. For the same compound, the mutagenic call (Test System: UDS HUMAN FIBROBLASTS, Strain/Indicator: THY INCORP, Metabolic Activation: NONE, Method: AUTORADIOGRAPHY) was “active; positive”.

With `Oc1ccc2[nH]ccc2c1` the mutagenic call [3] was “inactive; negative”.
